Assay results: ChEMBL document CHEMBL5608182, “Synthesis and evaluation of neuroactive steroids with novel pharmacophore at C-21 let identify a compound with advantageous PK profile and higher EC50 and Emax as PAM on GABAA receptor” (Eur J Med Chem, 2024)

Legend:
[1] = biological target: GABA-A receptor; alpha-1/beta-2/gamma-2 (Homo sapiens) (UniProt P14867+P47870+P18507); assay: (§1) Positive allosteric modulation of synaptic alpha1beta2gamma2 GABA-A receptor (unknown origin) transfected in LTK cells assessed as potentiation of GABA-induced peak current amplitude by measuring maximal efficacy at 0.01 to 10 uM at -80 mV holding potential preincubated for 30 secs followed by GABA stimulation for 2 secs by Q-patch assay relative to control; type: cell-based; details: filed as positive allosteric modulator, dose 0.01-10 µM, time 32.0 sec
[2] = biological target: T1, GABA-A receptor; alpha-1/beta-2/gamma-2 (Homo sapiens, UniProt P14867+P18507+P47870); assay: (§2) Positive allosteric modulation of synaptic alpha1beta2gamma2 GABA-A receptor (unknown origin) transfected in LTK cells assessed as potentiation of GABA-induced peak current amplitude at -80 mV holding potential preincubated for 30 secs followed by GABA stimulation for 2 secs by Q-patch assay; type: cell-based
T1 sequence (P14867 whole entry): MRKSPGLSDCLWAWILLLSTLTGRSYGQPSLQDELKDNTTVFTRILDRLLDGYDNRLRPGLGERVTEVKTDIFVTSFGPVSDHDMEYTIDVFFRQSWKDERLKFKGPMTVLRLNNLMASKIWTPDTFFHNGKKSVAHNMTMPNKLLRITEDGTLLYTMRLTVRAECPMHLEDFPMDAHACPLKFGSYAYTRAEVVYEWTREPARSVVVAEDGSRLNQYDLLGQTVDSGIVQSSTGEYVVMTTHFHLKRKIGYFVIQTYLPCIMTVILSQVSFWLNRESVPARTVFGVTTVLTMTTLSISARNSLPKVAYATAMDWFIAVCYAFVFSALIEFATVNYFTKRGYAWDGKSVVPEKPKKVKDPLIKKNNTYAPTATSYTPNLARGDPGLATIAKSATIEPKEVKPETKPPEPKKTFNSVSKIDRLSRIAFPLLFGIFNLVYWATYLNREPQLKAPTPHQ
T1 sequence (P47870 whole entry): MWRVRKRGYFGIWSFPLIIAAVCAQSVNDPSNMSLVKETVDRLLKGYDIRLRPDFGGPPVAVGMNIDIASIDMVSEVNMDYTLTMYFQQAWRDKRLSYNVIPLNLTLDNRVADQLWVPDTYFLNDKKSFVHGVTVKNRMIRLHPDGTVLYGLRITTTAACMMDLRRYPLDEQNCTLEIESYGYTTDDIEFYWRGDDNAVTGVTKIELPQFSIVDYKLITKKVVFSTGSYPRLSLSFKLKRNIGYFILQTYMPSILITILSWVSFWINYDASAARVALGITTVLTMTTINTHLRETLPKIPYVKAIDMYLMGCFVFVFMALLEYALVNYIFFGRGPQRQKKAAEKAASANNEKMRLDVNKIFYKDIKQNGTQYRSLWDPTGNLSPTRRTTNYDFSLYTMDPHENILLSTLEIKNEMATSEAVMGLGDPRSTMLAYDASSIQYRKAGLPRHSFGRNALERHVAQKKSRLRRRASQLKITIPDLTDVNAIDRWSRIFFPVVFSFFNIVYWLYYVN
T1 sequence (P18507 whole entry): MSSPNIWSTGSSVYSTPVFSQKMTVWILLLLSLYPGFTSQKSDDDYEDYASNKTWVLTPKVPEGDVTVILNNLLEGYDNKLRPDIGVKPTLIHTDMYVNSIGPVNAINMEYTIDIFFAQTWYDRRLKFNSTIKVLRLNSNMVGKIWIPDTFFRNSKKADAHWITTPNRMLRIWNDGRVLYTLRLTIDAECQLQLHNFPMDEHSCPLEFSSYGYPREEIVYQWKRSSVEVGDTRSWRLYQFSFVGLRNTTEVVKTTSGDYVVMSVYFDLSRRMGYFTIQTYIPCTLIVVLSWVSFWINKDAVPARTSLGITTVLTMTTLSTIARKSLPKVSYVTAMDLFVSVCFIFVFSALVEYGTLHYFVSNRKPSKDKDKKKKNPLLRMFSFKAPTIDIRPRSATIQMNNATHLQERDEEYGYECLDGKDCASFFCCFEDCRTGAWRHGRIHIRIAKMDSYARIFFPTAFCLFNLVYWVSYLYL

[3] = biological target: Gamma-aminobutyric acid receptor subunit alpha-4/beta3/delta (Homo sapiens) (UniProt P28472+P48169+O14764); assay: as §1, with “extrasynaptic alpha4beta3delta” for “synaptic alpha1beta2gamma2”, “CHO” for “LTK”, “manual patch” for “Q-patch”; type: cell-based; details: filed as positive allosteric modulator, dose 0.01-10 µM, time 32.0 sec
[4] = biological target: Gamma-aminobutyric acid receptor subunit alpha-4/beta3/delta (Homo sapiens, UniProt O14764+P28472+P48169); assay: as §2, with “extrasynaptic alpha4beta3delta” for “synaptic alpha1beta2gamma2”, “CHO” for “LTK”, “manual patch” for “Q-patch”; type: cell-based
Gamma-aminobutyric acid receptor subunit alpha-4/beta3/delta, sequence (P28472 whole entry): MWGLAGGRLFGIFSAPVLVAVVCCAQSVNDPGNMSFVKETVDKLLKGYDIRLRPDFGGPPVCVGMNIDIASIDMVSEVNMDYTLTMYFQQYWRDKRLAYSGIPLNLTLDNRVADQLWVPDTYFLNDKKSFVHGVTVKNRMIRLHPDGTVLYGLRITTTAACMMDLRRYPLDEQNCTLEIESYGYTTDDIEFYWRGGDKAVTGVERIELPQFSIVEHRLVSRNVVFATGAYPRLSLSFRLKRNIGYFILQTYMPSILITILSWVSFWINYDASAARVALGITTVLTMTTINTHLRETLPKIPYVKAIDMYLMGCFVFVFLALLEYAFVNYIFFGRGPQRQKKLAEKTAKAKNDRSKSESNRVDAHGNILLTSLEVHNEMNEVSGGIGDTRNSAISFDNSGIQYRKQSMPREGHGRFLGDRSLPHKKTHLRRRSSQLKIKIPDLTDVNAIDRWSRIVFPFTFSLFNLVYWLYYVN
Gamma-aminobutyric acid receptor subunit alpha-4/beta3/delta, sequence (P48169 whole entry): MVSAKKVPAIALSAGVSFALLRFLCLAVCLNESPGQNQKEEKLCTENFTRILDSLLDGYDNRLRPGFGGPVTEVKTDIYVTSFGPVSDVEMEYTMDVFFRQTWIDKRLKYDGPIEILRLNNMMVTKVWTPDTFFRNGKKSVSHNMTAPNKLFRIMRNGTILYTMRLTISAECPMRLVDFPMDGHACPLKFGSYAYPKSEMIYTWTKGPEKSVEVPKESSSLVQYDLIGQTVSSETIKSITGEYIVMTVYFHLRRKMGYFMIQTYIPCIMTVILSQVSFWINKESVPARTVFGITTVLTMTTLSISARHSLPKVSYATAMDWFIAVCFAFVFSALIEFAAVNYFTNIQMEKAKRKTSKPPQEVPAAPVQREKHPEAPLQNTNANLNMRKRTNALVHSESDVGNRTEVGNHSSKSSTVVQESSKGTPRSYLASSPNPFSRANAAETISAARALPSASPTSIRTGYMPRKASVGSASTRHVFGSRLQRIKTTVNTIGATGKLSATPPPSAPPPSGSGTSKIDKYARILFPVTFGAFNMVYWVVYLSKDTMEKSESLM
Gamma-aminobutyric acid receptor subunit alpha-4/beta3/delta, sequence (O14764 whole entry): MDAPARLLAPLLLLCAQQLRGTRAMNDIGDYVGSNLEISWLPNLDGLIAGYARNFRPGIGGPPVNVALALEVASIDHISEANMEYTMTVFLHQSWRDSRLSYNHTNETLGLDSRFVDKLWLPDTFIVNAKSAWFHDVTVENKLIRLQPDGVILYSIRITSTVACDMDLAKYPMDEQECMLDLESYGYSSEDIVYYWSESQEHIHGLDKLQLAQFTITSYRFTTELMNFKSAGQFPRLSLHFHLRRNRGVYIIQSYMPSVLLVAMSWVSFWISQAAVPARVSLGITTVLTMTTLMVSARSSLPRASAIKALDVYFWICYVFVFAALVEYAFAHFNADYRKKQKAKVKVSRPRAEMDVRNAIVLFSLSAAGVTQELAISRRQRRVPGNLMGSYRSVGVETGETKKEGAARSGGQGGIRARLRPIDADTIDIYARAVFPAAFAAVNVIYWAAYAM

[5] = Metabolic stability in human liver microsomes assessed as compound remaining at 1 uM preincubated for 10 mins followed by NADPH addition by LC-MS analysis; type: ADME, Microsome; details: read-out: Stability
[6] = Metabolic stability in human liver microsomes assessed as intrinsic clearance at 1 uM preincubated for 10 mins followed by NADPH addition by LC-MS analysis; type: ADME, Microsome; details: read-out: CLH
[7] = Metabolic stability in Sprague-Dawley rat liver microsomes assessed as compound remaining at 1 uM preincubated for 10 mins followed by NADPH addition by LC-MS analysis; type: ADME, Microsome; details: read-out: Stability
[8] = Metabolic stability in Sprague-Dawley rat liver microsomes assessed as intrinsic clearance at 1 uM preincubated for 10 mins followed by NADPH addition by LC-MS analysis; type: ADME, Microsome; details: read-out: CLH
[9] = biological target: GABA-A receptor; anion channel; assay: Inhibition of [35S]TBPS binding to GABA-A receptor in Sprague-Dawley rat brain cortical membrane incubated for 90 mins by liquid scintillation spectrometry; type: cell membranes, Cortex

C[C@@]1(O)CC[C@H]2[C@H](CC[C@@H]3[C@@H]2CC[C@]2(C)[C@@H](C(=O)Cn4cnn(-c5ccc6c(c5)OCO6)c4=O)CC[C@@H]32)C1
Emax [1]: 387%
EC50 [2]: 139 nM
Emax [3]: 1200%
EC50 [4]: 266 nM

CC(C)(C)n1ncn(CC(=O)[C@H]2CC[C@H]3[C@@H]4CC[C@@H]5C[C@](C)(O)CC[C@@H]5[C@H]4CC[C@]23C)c1=O
Emax [1]: 806%
EC50 [2]: 310 nM
Emax [3]: 749%
EC50 [4]: 268 nM

C[C@@]1(O)CC[C@H]2[C@H](CC[C@@H]3[C@@H]2CC[C@]2(C)[C@@H](C(=O)Cn4cnn(-c5ccc(F)cc5)c4=O)CC[C@@H]32)C1
Emax [1]: 390%
EC50 [2]: 220 nM
Emax [3]: 410%
EC50 [4]: 170 nM

COc1cccc(-n2ncn(CC(=O)[C@H]3CC[C@H]4[C@@H]5CC[C@@H]6C[C@](C)(O)CC[C@@H]6[C@H]5CC[C@]34C)c2=O)c1
remaining at 1 µM [5]: 43.5%
Emax [1]: 410%
EC50 [2]: 26 nM
CLint scaled at 1 µM [6]: 24 mL/min/kg
Emax [3]: 570%
EC50 [4]: 21 nM
remaining at 1 µM [7]: 14.2%
CLint scaled at 1 µM [8]: 176 mL/min/kg

C[C@@]1(O)CC[C@H]2[C@H](CC[C@@H]3[C@@H]2CC[C@]2(C)[C@@H](C(=O)Cn4cnn(-c5cccc(F)c5F)c4=O)CC[C@@H]32)C1
Emax [1]: 445%
EC50 [2]: 126 nM
Emax [3]: 526%
EC50 [4]: 42 nM

C[C@@]1(O)CC[C@H]2[C@H](CC[C@@H]3[C@@H]2CC[C@]2(C)[C@@H](C(=O)Cn4cnn(-c5cccc(F)n5)c4=O)CC[C@@H]32)C1
Emax [1]: 724%
EC50 [2]: 368 nM
Emax [3]: 966%
EC50 [4]: 360 nM

C[C@@]1(O)CC[C@H]2[C@H](CC[C@@H]3[C@@H]2CC[C@]2(C)[C@@H](C(=O)Cn4ccn(-c5cccc(F)c5)c4=O)CC[C@@H]32)C1
Emax [1]: 594%
EC50 [2]: 241 nM
IC50 [9]: 1 nM
Emax [3]: 552%
EC50 [4]: 139 nM

C[C@@]1(O)CC[C@H]2[C@H](CC[C@@H]3[C@@H]2CC[C@]2(C)[C@@H](C(=O)Cn4cnn(-c5cc(F)ccn5)c4=O)CC[C@@H]32)C1
Emax [1]: 446%
EC50 [2]: 340 nM
Emax [3]: 720%
EC50 [4]: 68 nM

C[C@@]1(O)CC[C@H]2[C@H](CC[C@@H]3[C@@H]2CC[C@]2(C)[C@@H](C(=O)Cn4cnn(-c5cncc(F)c5)c4=O)CC[C@@H]32)C1
Emax [1]: 618%
EC50 [2]: 145 nM
Emax [3]: 601%
EC50 [4]: 150 nM

C[C@@]1(O)CC[C@H]2[C@H](CC[C@@H]3[C@@H]2CC[C@]2(C)[C@@H](C(=O)Cn4cnn(C5CCCCC5)c4=O)CC[C@@H]32)C1
Emax [1]: 873%
EC50 [2]: 585 nM
Emax [3]: 685%
EC50 [4]: 237 nM

C[C@@]1(O)CC[C@H]2[C@H](CC[C@@H]3[C@@H]2CC[C@]2(C)[C@@H](C(=O)Cn4cnn(-c5nccs5)c4=O)CC[C@@H]32)C1
Emax [1]: 763%
EC50 [2]: 330 nM
Emax [3]: 633%
EC50 [4]: 126 nM

CCn1ncn(CC(=O)[C@H]2CC[C@H]3[C@@H]4CC[C@@H]5C[C@](C)(O)CC[C@@H]5[C@H]4CC[C@]23C)c1=O
Emax [1]: 632%
EC50 [2]: 190 nM
Emax [3]: 526%
EC50 [4]: 270 nM

C[C@@]1(O)CC[C@H]2[C@H](CC[C@@H]3[C@@H]2CC[C@]2(C)[C@@H](C(=O)Cn4cnn(-c5cccc(C#N)c5)c4=O)CC[C@@H]32)C1
Emax [1]: 1050%
EC50 [2]: 112 nM
Emax [3]: 683%
EC50 [4]: 50 nM

C[C@@]1(O)CC[C@H]2[C@H](CC[C@@H]3[C@@H]2CC[C@]2(C)[C@@H](C(=O)Cn4cnn(-c5ccccc5F)c4=O)CC[C@@H]32)C1
Emax [1]: 710%
EC50 [2]: 171 nM
Emax [3]: 541%
EC50 [4]: 107 nM

C[C@@]1(O)CC[C@H]2[C@H](CC[C@@H]3[C@@H]2CC[C@]2(C)[C@@H](C(=O)Cn4cnn(CC(F)(F)F)c4=O)CC[C@@H]32)C1
Emax [1]: 378%
EC50 [2]: 548 nM
Emax [3]: 1280%
EC50 [4]: 1240 nM

C[C@@]1(O)CC[C@H]2[C@H](CC[C@@H]3[C@@H]2CC[C@]2(C)[C@@H](C(=O)Cn4cnn(-c5ccccc5)c4=O)CC[C@@H]32)C1
Emax [1]: 430%
EC50 [2]: 90 nM
Emax [3]: 430%
EC50 [4]: 29 nM

C[C@@]1(O)CC[C@H]2[C@H](CC[C@@H]3[C@@H]2CC[C@]2(C)[C@@H](C(=O)Cn4cnn(-c5ccc(F)cc5F)c4=O)CC[C@@H]32)C1
Emax [1]: 692%
EC50 [2]: 784 nM
Emax [3]: 542%
EC50 [4]: 89 nM

Cn1ncn(CC(=O)[C@H]2CC[C@H]3[C@@H]4CC[C@@H]5C[C@](C)(O)CC[C@@H]5[C@H]4CC[C@]23C)c1=O
Emax [1]: 242%
EC50 [2]: 444 nM
Emax [3]: 497%
EC50 [4]: 305 nM

C[C@@]1(O)CC[C@H]2[C@H](CC[C@@H]3[C@@H]2CC[C@]2(C)[C@@H](C(=O)Cn4cnn(CC5CC5)c4=O)CC[C@@H]32)C1
remaining at 1 µM [5]: 26.4%
Emax [1]: 727%
EC50 [2]: 163 nM
CLint scaled at 1 µM [6]: 38 mL/min/kg
Emax [3]: 931%
EC50 [4]: 122 nM
remaining at 1 µM [7]: 5.9%
CLint scaled at 1 µM [8]: 280 mL/min/kg

C[C@@]1(O)CC[C@H]2[C@H](CC[C@@H]3[C@@H]2CC[C@]2(C)[C@@H](C(=O)Cn4ncn(-c5cccc(F)c5)c4=O)CC[C@@H]32)C1
Emax [1]: 1260%
EC50 [2]: 371 nM
IC50 [9]: 1 nM
Emax [3]: 334%
EC50 [4]: 112 nM

C[C@@]1(O)CC[C@H]2[C@H](CC[C@@H]3[C@@H]2CC[C@]2(C)[C@@H](C(=O)Cn4cnn(-c5cccc(OC(F)(F)F)c5)c4=O)CC[C@@H]32)C1
Emax [1]: 629%
EC50 [2]: 182 nM
Emax [3]: 1580%
EC50 [4]: 41 nM

C[C@@]1(O)CC[C@H]2[C@H](CC[C@@H]3[C@@H]2CC[C@]2(C)[C@@H](C(=O)Cn4cnn(C5CCCC5)c4=O)CC[C@@H]32)C1
Emax [1]: 691%
EC50 [2]: 192 nM
Emax [3]: 830%
EC50 [4]: 203 nM

C[C@@]1(O)CC[C@H]2[C@H](CC[C@@H]3[C@@H]2CC[C@]2(C)[C@@H](C(=O)Cn4cnn(-c5cccc(N)c5)c4=O)CC[C@@H]32)C1
Emax [1]: 786%
EC50 [2]: 349 nM
Emax [3]: 1070%
EC50 [4]: 213 nM

C[C@@]1(O)CC[C@H]2[C@H](CC[C@@H]3[C@@H]2CC[C@]2(C)[C@@H](C(=O)Cn4cnn(-c5cc(F)cc(F)c5)c4=O)CC[C@@H]32)C1
Emax [1]: 1040%
EC50 [2]: 154 nM
Emax [3]: 441%
EC50 [4]: 35 nM

C[C@@]1(O)CC[C@H]2[C@H](CC[C@@H]3[C@@H]2CC[C@]2(C)[C@@H](C(=O)Cn4cnn(-c5cc(F)ccc5F)c4=O)CC[C@@H]32)C1
Emax [1]: 347%
EC50 [2]: 340 nM
Emax [3]: 743%
EC50 [4]: 79 nM
